Results as given in article PMC12778052 (Science Advances, 2026).
Starred links: 1 amine or outer side, 2 acyl side, 3 side chain; linkers in the order of their positions; H or OH if unused. Positions of bridges follow the written chain, without caps; N, C: chain ends. Non-standard residues stand in square brackets, D forms with d. Primed or numbered codes have the meaning given here. *: point of attachment. TATA = O=C(CC[*:1])N1CN(C(=O)CC[*:2])CN(C(=O)CC[*:3])C1; NOTA = O=C(O)CN1CCN(CC(=O)O)CCN(CC(=O)*)CC1; Hyp = O=C(O)[C@@H]1C[C@@H](O)CN1; hArg = N=C(N)NCCCC[C@H](N)C(=O)O; PEG12′ = not defined here; Nal = naphthylalanine

T1: human Nectin-4 (Homo sapiens, UniProt Q96NY8)
T1 construct: purchased R&D Systems 2659-N4-050
T1 sequence (Q96NY8 32-349 limits assumed): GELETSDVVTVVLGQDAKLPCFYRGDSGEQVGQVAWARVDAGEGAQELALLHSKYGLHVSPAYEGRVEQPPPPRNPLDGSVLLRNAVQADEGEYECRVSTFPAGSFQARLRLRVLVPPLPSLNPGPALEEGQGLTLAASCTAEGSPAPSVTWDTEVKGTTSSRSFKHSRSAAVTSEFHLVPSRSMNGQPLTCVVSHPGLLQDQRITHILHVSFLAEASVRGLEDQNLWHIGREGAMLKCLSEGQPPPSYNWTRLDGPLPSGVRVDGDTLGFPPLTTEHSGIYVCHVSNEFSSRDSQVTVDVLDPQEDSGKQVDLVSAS

T2: mouse Nectin-4 (Mus musculus, UniProt Q8R007)
T2 construct: purchased R&D Systems 3116-N4-050
T2 sequence (Q8R007 31-347 limits assumed): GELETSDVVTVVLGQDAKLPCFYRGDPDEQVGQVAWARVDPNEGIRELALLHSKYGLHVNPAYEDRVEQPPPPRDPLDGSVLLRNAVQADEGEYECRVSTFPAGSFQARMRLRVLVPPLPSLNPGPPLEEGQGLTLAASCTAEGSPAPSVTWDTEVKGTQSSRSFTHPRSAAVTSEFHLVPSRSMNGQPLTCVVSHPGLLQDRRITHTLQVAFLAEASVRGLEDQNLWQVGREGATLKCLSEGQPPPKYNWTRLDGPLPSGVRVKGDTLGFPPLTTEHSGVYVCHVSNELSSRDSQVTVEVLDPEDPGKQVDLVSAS

T3: His-tagged mouse Nectin-4 (R&D Systems, catalog no. 3116-N4-050) (mouse, UniProt Q8R007 31-347)
T3 chain: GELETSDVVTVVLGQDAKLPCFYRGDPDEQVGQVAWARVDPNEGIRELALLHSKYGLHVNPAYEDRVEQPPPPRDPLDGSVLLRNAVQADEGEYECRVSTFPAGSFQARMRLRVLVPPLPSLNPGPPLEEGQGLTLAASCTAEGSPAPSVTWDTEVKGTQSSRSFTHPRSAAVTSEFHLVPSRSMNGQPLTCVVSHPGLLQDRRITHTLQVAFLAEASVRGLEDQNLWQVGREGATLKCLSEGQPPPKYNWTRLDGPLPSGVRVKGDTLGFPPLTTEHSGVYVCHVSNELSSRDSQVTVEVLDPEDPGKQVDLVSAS

T4: His-tagged human Nectin-4 (R&D Systems, catalog no. 2659-N4-050) (human, UniProt Q96NY8 32-349)
T4 chain: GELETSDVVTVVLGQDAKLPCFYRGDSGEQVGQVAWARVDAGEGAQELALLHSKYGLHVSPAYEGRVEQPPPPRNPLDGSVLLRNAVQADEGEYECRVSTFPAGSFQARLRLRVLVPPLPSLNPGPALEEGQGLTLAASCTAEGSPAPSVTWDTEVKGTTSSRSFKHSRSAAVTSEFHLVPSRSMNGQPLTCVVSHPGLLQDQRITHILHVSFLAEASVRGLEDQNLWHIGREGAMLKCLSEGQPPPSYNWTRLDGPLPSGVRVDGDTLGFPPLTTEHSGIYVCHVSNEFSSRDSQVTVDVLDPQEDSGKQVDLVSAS


How the values were obtained:
HT1376 xenografts = assay: In vivo blocking of [^68Ga]AJ647 uptake by nonradioactive AJ647, PET; design: species or system NSG mice; conditions: nonradioactive AJ647 2 mg/kg pre-injected; PET-MR 60 min
Description: Mice with tumor volumes of ~100 to 150 mm^3 were injected with ~200 μCi [7.4 megabecquerels (MBq)] of [^68Ga]AJ647 in […] of 5% ethanol in saline intravenously and anesthetized under 2.5% isoflurane. PET-computed tomography (CT) images were acquired at 60 min after radiotracer injection at 5 min per bed in an ARGUS small-animal PET/CT scanner (Sedecal, Madrid, Spain) as described previously (n = 3, unless otherwise noted). PET-MR images were acquired on a simultaneous 7T Bruker PET-MR scanner. Dynamic imaging was conducted to evaluate the PK of [^68Ga]AJ647. [^68Ga]AJ647 was injected (with the help of a catheter) after mice were anesthetized under 2.5% isoflurane on the equipment bed. All PET data were reconstructed using the two-dimensional (2D) ordered subset expectation maximization algorithm and corrected for radioactive decay and dead times. The SUV values were calculated by finding %IA on the basis of a calibration factor obtained from a known radioactive quantity and then normalizing by mice weight. Amide software was used to derive SUV values by drawing the region of interest to closely fit tumors. […] For the change in accessible Nectin-4 following EV treatment, ΔSUV was calculated by subtracting baseline (pre-treatment) uptake from posttherapy uptake of [^68Ga]AJ647. TE was quantified by normalizing this change by initial SUV in the same subject controls. […]

human Nectin-4 = molecular target: T1, human Nectin-4; assay: SPR affinity for recombinant human Nectin-4; assay type: binding; conditions: Biacore T200, CM5 chip, 25°C, His-tagged recombinant protein captured, 1:1 kinetics fit, n = 3
Description: (§1) The affinity of AJ647 for human and mouse Nectin-4 recombinant proteins was evaluated by SPR. The experiments were conducted using a Biacore T200 instrument with a CM5 chip at 25°C. The ligands used were His-tagged human Nectin-4 (R&D Systems, catalog no. 2659-N4-050, 44 kDa, 0.2 mg/ml stock concentration) and mouse Nectin-4 proteins (R&D Systems, catalog no. 3116-N4-050, 45 kDa, 0.2 mg/ml stock concentration), which were immobilized onto the CM5 chip. AJ647 (3057.5 Da, 10 mM stock concentration) was used as the analyte, which flowed over the ligand-immobilized surface. FC2 and FC4 was used as the experimental flow cell, while FC1 and FC3 served as the reference. An anti-His antibody (1 mg/ml stock concentration) was immobilized on all flow cells using standard amine coupling chemistry. […] Human Nectin-4 was captured onto FC2 at a level of ~600 RU, with a 1:20 dilution and 10 μg/ml diluted concentration in PBS-P. Mouse Nectin-4 was captured onto FC4 at a level of 600 RU, with a 1:20 dilution and 10 μg/ml diluted concentration in PBS-P. The theoretical maximum response (Rmax ) values were calculated on the basis of the captured response values (table S1), assuming a 1:1 interaction mechanism. […] All association and dissociation kinetics were evaluated by 1:1 kinetics model fitting.

mouse Nectin-4 = molecular target: T2, mouse Nectin-4; assay: SPR affinity for recombinant mouse Nectin-4; assay type: binding; conditions: Biacore T200, CM5 chip, 25°C, His-tagged recombinant protein captured, 1:1 kinetics fit, n = 3
Description: as §1

[1] = test system: bladder cancer cell lines; assay: In vitro blocking of [^68Ga]AJ647 uptake by nonradioactive AJ647; assay type: cell-based; conditions: 2 μM nonradioactive AJ647 (0.2 nmol, blocking dose)
Description: In vitro binding of [^68Ga]AJ647 to T24, SCaBER, RT112, UC9, UC14, and HT1376 cells was determined by incubating 1 × 10^6 cells with ~1 μCi of [^68Ga]AJ647 for 30 min at 4°C. After incubation, cells were washed three times with ice-cold PBS containing 0.1% Tween 20 and counted on an automated gamma counter. All cell radioactivity uptake studies were performed in quadruplicate for each cell line and repeated three times.

[2] = molecular target: T3, His-tagged mouse Nectin-4 (R&D Systems, …); assay: SPR
[3] = molecular target: T4, His-tagged human Nectin-4 (R&D Systems, …); assay: SPR

koff [2]	koff [3]	Molecule	effect on [^68Ga]AJ647 uptake in HT1376 xenografts (HT1376 xenografts)	Kd (human Nectin-4)	Kd (mouse Nectin-4)	effect of co-incubation on radiotracer uptake [1]
–	–	CSCC[C@@H]1NC(=O)[C@@H]2CSCCC(=O)N3CN(CN(C3)C(=O)CCSC[C@H](NC(=O)CCOCCOCCOCCOCCOCCOCCOCCOCCOCCOCCOCCOCCNC(=O)CN3CCN(CC(=O)O)CCN(CC(=O)O)CC3)C(=O)N3CCC[C@H]3C(=O)N[C@@H](Cc3cccc4ccccc34)C(=O)N[C@@H](CC(=O)O)C(=O)N2)C(=O)CCSC[C@@H](C(N)=O)NC(=O)[C@H](Cc2c[nH]c3ccccc23)NC(=O)[C@@H]2C[C@@H](O)CN2C(=O)[C@@H]2CCCN2C(=O)[C@H]([C@@H](C)O)NC(=O)[C@H](CO)NC(=O)[C@H](Cc2c[nH]c3ccccc23)NC(=O)[C@@H](CC(=O)O)NC(=O)[C@H](CCCCNC(=N)N)NC1=O [AJ647]	reduction in tracer uptake	15 ± 10.1 nM	14.1 ± 3.4 nM	significantly reduced radiotracer uptake
0.0101 s⁻¹	0.0106 s⁻¹	{NOTA-PEG12′}-CP[Nal]DCM[hArg]DWSTP[Hyp]WC-NH2 (linker 1-5-15 via TATA; not fully specified (residue 8)) [AJ647 (NOTA-PEG12 conjugate of the bicyclic peptide AJ632)]	–	–	–	–
